The source of these data is patent publication US10390553B2, “Food containing histidine and use thereof” (AJINOMOTO CO., INC., priority 2013, dated 2019).

Structures are written as SMILES.

Assay [1] deals with CD2F1 mice after burden of insufficient sleep. Kind of assay: Locomotor activities in the dark phase after burden of insufficient sleep, continuous histidine administration. The assay is classed as in vivo, mouse. Particulars: 1.2 w/v % L-histidine solution drunk for 7 days, 1.2 g/kg body weight/day; SD+His vs SD+solvent. The text has this: Using CD2F1 mice (9-week-old) and as shown in the experiment protocol of FIG. 1A, the mice were chronically allowed to drink a 1.2 w/v % L-histidine solution for 7 days in the histidine ingestion group (SD+His) to achieve a dose of 1.2 g/kg body weight/day. Water was given to the control group (CON) and the solvent ingestion group (SD+solvent). Then, the sleep disorder group (SD) was burdened by insufficient sleep for one day by filling water in the breeding cage at the depth of 0.5 cm. The burden was released at 6 hr from the start of the light phase (ZT6), and the mice were placed back in the home cage and allowed to rest for 6 hr. The control group was reared without burden in the home cage. Thereafter, they were transferred into a cage set under a locomotor activity measurement infrared sensor (Digital acquisition system; NS-DAS-32, Neuroscience Inc, Tokyo, Japan) under fasting and water-deprivation. The locomotor activities were measured and the data was collected by a multidigital counter (Neuroscience Inc, Tokyo, Japan).

Assay [2] has the same test system. Description: Y-maze test, short-working memory after burden of insufficient sleep, single histidine administration. It counts as in vivo, mouse. Conditions: single oral dose 1.2 g/kg body weight at ZT14; Y-maze at ZT15; SD+His vs SD+solvent. An excerpt:
Using CD2F1 mice (9-week-old) and as shown in the experiment protocol of FIG. 3A, a burden of insufficient sleep is applied to sleep disorder group (SD) for two days. The burden was released at ZT6, and the mice were placed back in the home cage and allowed to rest for 6 hr. The control group (CON) was reared without burden in the home cage. A L-histidine solution was orally administered to a histidine administration group (SD+His) at 2 hr after the start of the dark phase after burden of insufficient sleep (ZT14), to achieve an L-histidine dose of 1.2 g/kg body weight. A solvent (water) was orally administered to the solvent administration group (SD+solvent) and the control group (CON). The Y-maze test was performed at 3 hr from the start of the dark phase (ZT15), and short-working memory was measured.

For assay [3], the system named is males feeling decrease in the sleep quality and fatigue. Description: Cognitive function measurement task CogHealth, histidine ingestion for 14 days. The assay is classed as in vivo, human. Particulars: 1.65 g daily for 14 days vs control food. An excerpt:
Twenty males of 45 years old to less than 65 years old, who received total evaluation of not less than 17 points in the “self-diagnosis fatigue questionnaire” (Fatigue Science Laboratory Inc.) performed in advance, felt decrease in the quality of sleep (generally PSQI≥6), and obtained fatigue factor T scores of not less than 60 points in POMS, were selected, and randomly divided into 2 groups (10 per group). A crossover test, including ingesting histidine and control food (equal volume of cellulose) each for 14 days, was performed in each group. As shown in the experiment protocol of FIG. 4A, the test subjects ingested capsules containing 1.65 g of L-histidine as a daily ingestion amount (5 capsules (hard capsule #2 WHITE OP B/C) containing 0.33 g of L-histidine alone), or control sample capsules (5 capsules containing equal volume of cellulose) for 14 days. After the completion of 14 day ingestion, a 14 day resting period was taken. After the resting period, they ingested the capsules not ingested before the resting period. […]

Assay [4] deals with mouse reared under 24 hr dark conditions. Kind of assay: Biorhythm phase regulating action, locomotor behavioral pattern in free run cycle under 24 hr dark conditions. The assay is classed as in vivo. Conditions: for phase shift of the behavior start time (circadian rhythm): feed with 45 mg L-histidine per 1 g, 4 hours per day for 4 days. The procedure:
A phase regulating action of histidine on a mouse reared under 24 hr dark conditions was evaluated. When a mouse is reared under 24 hr dark conditions, the mouse starts to act in a cycle specific to the biological clock (also referred to as free run, meaning freed from synchrony), since the outside information (light-dark cycle of light) cannot be obtained. When the free run cycle is converted to 24 hr and indicated as circadian time on the horizontal axis, 12 hours of the former half thereof is called a subjective light period (time zone judged to be daytime by biological clock: CT0-12), and the latter half is called a subjective dark period (time zone judged to be night by biological clock: CT12-24). Under such conditions, locomotor activity of mice (behavioral pattern in free run cycle) was measured using an emission infrared detector type locomotor activities sensor (Digital acquisition system; NS-AS01, Neuroscience Inc, Tokyo, Japan). Furthermore, a feed added with 45 mg of L-histidine per 1 g of a general feed was prepared, and used to replace the general feed for only 4 hours in one day to allow for ingestion. The time zone for ingestion was CT2-6 (subjective light period) or CT14-18 (subjective dark period). Such replacement of the feed was performed for 4 days, and change of phase of the behavioral pattern was judged.

Assay [5] has as its system clock genes (Bmal1, Dbp, Per1, Per2, Reverb-alpha). Description: Oscillation of expression of clock genes of the auricle in aged mice. Particulars: aged mice 22 to 24 months, 1.2 w/v % L-histidine solution for 9 days. It counts as in vivo, mouse. How it is done: Aged mice of 22 to 24 months of age being reared under generally light and dark environment were divided into two groups, and the effect of the ingestion of histidine drinking solution was studied. The histidine ingestion period was set to 9 days, during which period aqueous L-histidine solution (corresponding to L-histidine 1.2 w/v %) was given for ingestion by mounting a water inlet on a 50 mL centrifuge tube, whereby about 1.2 g/kg body weight of histidine was ingested per day. In the histidine ingestion group of aged mice, samples were taken from the auricle by changing the position over time on 8 to 9 days from the start of the ingestion of the aqueous histidine solution, and 5 kinds of clock genes (Bmal1, Dbp, Per1, Per2, Reverb-alpha) of the peripheral tissue were analyzed as an index of biorhythm. In the simultaneous stage, the clock genes of the auricle of the aged mice and young mice (4 months old) that ingested tap water were analyzed as comparison targets. […] To be specific, gene expression of the clock gene was quantified at each time point, and the amplitudes and phase of the oscillation of expression of the clock gene of each individual were determined by approximation on the cosine curve. […]

With `N[C@@H](Cc1c[nH]cn1)C(=O)O` [histidine, L-histidine], the “locomotor activities in the dark phase” value in assay [1] is given as “significant suppression of a decrease of locomotor activities in the dark phase”. In assay [2], the “alternation behavior (short-working memory)” value is “significant suppression of a decrease of alternation behavior”. The “reaction time of cognitive function measurement task” value in assay [3] is “shortened”. The “reaction time of delayed recall task” value in assay [3] (paired t-test p<0.05) is “significantly decreased”. Moreover, the “phase shift of the behavior start time (circadian rhythm)” value in assay [4] (ingestion in CT2-6 (subjective light period)) was “significantly advances”; in assay [4] (ingestion in CT14-18 (subjective dark period)) it was “tended to advance”. In assay [4] (ingestion of histidine in CT2-6, n=4), the “shortening of the cycle of activity rhythm, mean” value was 0.34 ± 0.08 h. Moreover, in assay [5] (about 1.2 g/kg body weight per day, vs aged mice on tap water), the “phase of the oscillation of expression of the clock gene” value is “suppressed phase advancement”. In addition, in assay [5] (compared to young mice (4 months old)), the “average phase of measured 5 clock genes compared to young mice” value is reported as “reached the same level as in young mice”.
